Measurements from patent US7781175B2, “Method of screening compounds which alter the binding properties of GPR39, and homologs thereof, to bile acid” (Takeda Pharmaceutical Company Limited, priority 2004, dated 2010).

Legend:
Format in all cases: cell-based
[1] = tested on: pAKKO-111H transfected cells (control); experiment: SRE-luciferase reporter assay in pAKKO-111H transfected HeLa cells for control; conditions: for Luciferase Activity (cps), pAKKO-111H (control): pAKKO-111H transfected HeLa cells, 4 hours, 0 μM baseline 2042
Description: (§1) First, cDNA encoding G protein-coupled receptor protein, the GPR39 (SEQ ID NO: 1) prepared by the method publicly known was inserted into pAKKO-111H (the same plasmid vector as pAKKO-1.111H described in Biochem. Biophys. Acta, Hinuma, S. et al., 1219, 251-259, 1994). Using the expression plasmid for animal cells thus obtained, Escherichia coli JM109 was transfected and the colonies obtained were isolated and cultured. Thereafter, large scale plasmid preparation was carried out using QIAGEN Plasmid Maxi Kit (Qiagen). Furthermore, the pSRE-Luc reporter plasmid (Invitrogen) ligated with a luciferase gene as a reporter at the downstream of serum response element (SRE), and expression vector plasmids for human GαoA, human Gβ1 and human Gγ2, which are a kind of G proteins, were prepared in a similar manner.
(§2) HeLa cells as host cells for transfecting the G protein-coupled receptor protein expression plasmid and the reporter plasmid were plated on a 384-well assay plate (COSTAR 3704) at 4000 cells/well in a culture volume of 25 μl, followed by incubation overnight. The medium used was DMEM (Invitrogen) supplemented with 10% fetal calf serum and 1% MEM non-essential amino acids solution (DMEM/NEAA).
(§3) Each plasmid was added to and mixed with 240 μl of Opti-MEM-I (Invitrogen) in a proportion of 1 μl of the protein expression plasmid or, for comparison, expression vector pAKKO-111H without DNA encoding the receptor protein in place of an expression plasmid of the receptor, 9 μl of the reporter plasmid and 1 μl each of the G protein-coupled receptor protein expression plasmid GαoA, Gβ1 or Gγ2. […]
(§4) The HeLa cells prepared in EXAMPLE 1 were washed twice with fetal calf serum-free DMEM/NEAA (assay medium) and then cultured in the same assay medium at 37° C. under 5% CO2 for 2 hours. […] After the cells were lysed and thoroughly mixed with the substrate, the chemiluminescence level corresponding to the expression induction level of the reporter gene in each well was measured on the plate reader (EnVision™, Perkin-Elmer).

GPR39 (SEQ ID NO: 1) = molecular target: T1, GPR39 (SEQ ID NO: 1) (Homo sapiens, UniProt O43194); experiment: SRE-luciferase reporter assay for ligand activity in GPR39-expressed HeLa cells; conditions: for Increased Luciferase Activity (cps) by TLCA in GPR39-Expressed Cells: GPR39-expressed HeLa cells, 4 hours, 0 μM baseline 3574
T1 construct: expressed in transfected cells; host or cells: HeLa cells, transient transfection (vector pAKKO-111H)
T1 sequence (O43194 1-453): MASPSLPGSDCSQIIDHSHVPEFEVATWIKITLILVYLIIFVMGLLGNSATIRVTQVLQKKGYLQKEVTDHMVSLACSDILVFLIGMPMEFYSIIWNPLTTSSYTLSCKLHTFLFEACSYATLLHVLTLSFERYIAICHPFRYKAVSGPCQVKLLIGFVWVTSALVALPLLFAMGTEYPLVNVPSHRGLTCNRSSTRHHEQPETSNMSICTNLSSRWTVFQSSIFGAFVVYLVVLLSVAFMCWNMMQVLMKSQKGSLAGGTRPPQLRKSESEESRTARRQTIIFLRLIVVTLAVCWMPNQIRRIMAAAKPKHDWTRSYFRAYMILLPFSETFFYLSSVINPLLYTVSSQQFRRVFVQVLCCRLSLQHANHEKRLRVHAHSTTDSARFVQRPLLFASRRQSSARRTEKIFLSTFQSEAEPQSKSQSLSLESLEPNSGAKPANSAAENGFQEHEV
Description: as §1, §2, §3, §4

[2] = tested on: GPR39-expressed cell line UM-UC-3; experiment: IL-8 secretion from GPR39-expressed cell line UM-UC-3, quantified by EIA; conditions: 500 μM, 4 hours
Description: Using the GPR39-expressed cell line UM-UC-3 (Dainippon Pharmaceutical), effects by the addition of bile acids as the GPR39 agonist were examined.
On the day before assay, UM-UC-3 was cultured until preconfluent in MINIMUM ESSENTIAL MEDIUM (WITH EARLE'S SALTS, WITH L-GLUTAMINE) (GIBCO BRL) supplemented with 10% FCS and MEM NON-ESSENTIAL AMINO ACIDS (GIBCO BRL), washed with PBS, detached using trypsin, centrifuged for recovery and then suspended in a medium to 3×10^6 cells/ml. After a 100 μl aliquot was dispensed into each well of a 96-well plate (Falcon), followed by incubation overnight in a CO2 incubator.
On the assay day, after the medium for the cells prepared on the preceding day was removed, the cells were washed with MEM NON-ESSENTIAL AMINO ACIDS-containing MINIMUM ESSENTIAL MEDIUM (WITH EARLE'S SALTS, WITH L-GLUTAMINE). A […] was further charged in each well, followed by incubation […] at 37° C. in a CO2 incubator. Subsequently, a 100 μl aliquot of MEM NON-ESSENTIAL AMINO ACIDS-containing MINIMUM ESSENTIAL MEDIUM (WITH EARLE'S SALTS, WITH L-GLUTAMINE), to which various test samples were added, was dispensed into each well, followed by incubation […]. After the culture supernatant was recovered, IL-8 contained in each sample was quantified by EIA (Amersham).

luciferase activity in the GPR39-expressed cells (in words) (GPR39 (SEQ ID NO: 1); TLCA 5 μM or 20 μM)	Increased Luciferase Activity (cps) by TLCA in GPR39-Expressed Cells (GPR39 (SEQ ID NO: 1); TLCA level 5 μM) [cps]	Increased Luciferase Activity (cps) by TLCA in GPR39-Expressed Cells (GPR39 (SEQ ID NO: 1); TLCA level 20 μM) [cps]	Compound	luciferase activity in the pAKKO-111H transfected cells for control (in words) ([1]; TLCA added)	Luciferase Activity (cps), pAKKO-111H (control) ([1]; TLCA level 5 μM) [cps]	Luciferase Activity (cps), pAKKO-111H (control) ([1]; TLCA level 20 μM) [cps]	IL-8 accumulated in culture supernatant compared to absence of the conjugate [2]
increased luciferase activity	5977	8114	C[C@H](CCC(=O)NCCS(=O)(=O)[O-])[C@H]1CC[C@H]2[C@@H]3CC[C@@H]4C[C@H](O)CC[C@]4(C)[C@H]3CC[C@]12C.[Na+] [TLCA, sodium taurolithocholate]	any marked increase of the activity was not detected	2214	2542	–
–	–	–	C[C@H](CCC(=O)NCCS(=O)(=O)O)[C@H]1CC[C@H]2[C@@H]3CC[C@@H]4C[C@H](O)CC[C@]4(C)[C@H]3C[C@H](O)[C@]12C [taurine conjugate of deoxycholic acid]	–	–	–	approximately twice as much
